Assay results as given in patent US20090010891A1, “Sepsis Treatment Agent” (Toa Pharmaceutical Co., Ltd., priority 2007, published 2009).

Test system: sepsis patients
Experiment: treatment course of sepsis in blood culture positive patients
Type: in vivo, human
Settings: observation for 1 year; for Cured / Deaths: number of cases, Bio3 1 g 3 times a day where given
Description: The sepsis treatment agent was administered 3 times a day at 1 g each time using a live bacteria formulation of a mix of the three bacteria. The patients were hospitalized in a psychiatric hospital. The patients were blood culture positive which is a predictor for bacterial translocation. In 4 cases, imipenem/cilastatin (IPM/CS) was administered, and in 4 cases, latamoxef (LMOX) was given. During the observation period, CRP (C reactive protein) increased slightly, and E. coli and enterococcus and the like were detected by culturing blood. After observation for 1 year, two cases died from both groups, and two cases were cured.

For `CO[C@@]1(NC(=O)C(C(=O)O)c2ccc(O)cc2)C(=O)N2C(C(=O)O)=C(CSc3nnnn3C)CO[C@@H]21` (some centres unmarked) [Latamoxef, latamoxef], the Cured was 2, the Deaths was 2 and the Cured (listed as latamoxef) was “two”. The Deaths (listed as latamoxef) was “two” and the “death rate (%)” value was 50%.
`C[C@@H](O)[C@H]1C(=O)N2C(C(=O)O)=C(SCCN=CN)C[C@H]12` [Imipenem, imipenem/cilastatin] was tested, and the Cured was 2, the Deaths was 2 and the “death rate (%)” value was 50%.
